In US20250186437A1, “CARBOLINE COMPOUNDS AND USE THEREOF” (PTC Therapeutics, Inc., priority 2021, published 2025):

system: MOLM-13 cells; assay: MOLM-13 Cell Proliferation Assay (indicator of DHODH inhibition); type: cell-based; conditions: Homo sapiens, 72 Hours of culture, CellTiter-Glo, no uridine
Procedure: The following assay was conducted to measure proliferation of MOLM-13 cells in the presence of each compound studied. This assay was included as an indicator of DHODH inhibition, as growth of MOLM-13 cells is known to depend on synthesis of pyrimidines using the de novo pathway, which can be blocked by inhibition of DHODH. • 1. MOLM-13 cells were cultured in RPMI 1640 medium+10% Fetal Bovine Serum (FBS). Only low passage cells (<20) were used for the compound tests • 2. On day 1, Log-phase growing Molm-13 Cells were counted and diluted to 10^5 cells/mL in RPMI 1640 medium+10% FBS • 3. 100 μL of diluted MOLM-13 cells in 96 well white plates were seeded, for a final density of 10^4 cells/well. • 4. 0.5 μL of pre-diluted 200× compounds or DMSO control was added to each well. The final DMSO concentration was 0.5%. • 5. After 72 Hours of culture at 37° C., 5% CO2, the plates were taken out and cooled to RT, then 50 μL CellTiter-Glo® (Promega) was added, and the composition was mixed at RT for 10 minutes. • 6. The plates were then read by ViewLux (Speed-fast, Gain-High, Bining-1X, 5 seconds).

Row | IC50 | Structure (SMILES)
1 | 0.2 nM | FC(F)(F)c1cc(C(F)(F)F)nc(N2CCc3c([nH]c4ccc(Br)cc34)[C@@H]2c2ccc(N3CCOCC3)nc2)n1 [Compound 487, (1S)-2-[4,6-bis(trifluoromethyl)pyrimidin-2-yl]-6-bromo-1-[6-(morpholin-4-yl)pyridin-3-yl]-2,3,4,9-tetrahydro-1H-pyrido[3,4-b]indole]
2 | 39.1 nM | Fc1cc2[nH]c3c(c2cc1Cl)CCN(c1ncc(Cl)cn1)C3c1ccc(Cl)cc1 (stereo not shown) [Compound 29, 6-chloro-1-(4-chlorophenyl)-2-(5-chloropyrimidin-2-yl)-7-fluoro-2,3,4,9-tetrahydro-1H-pyrido[3,4-b]indole]
3 | 4 nM | O=C(O)CCNc1ncc([C@H]2c3[nH]c4ccc(Cl)cc4c3CCN2c2nc(C(F)(F)F)nc(C(F)(F)F)n2)cn1 [Compound 537, N-(5-{(1S)-2-[4,6-bis(trifluoromethyl)-1,3,5-triazin-2-yl]-6-chloro-2,3,4,9-tetrahydro-1H-pyrido[3,4-b]indol-1-yl}pyrimidin-2-yl)-β-alanine]
4 | 4.1 nM | Cc1nc(N2CCc3c([nH]c4cc(F)c(Cl)cc34)C2c2ccc(CCCCO)cc2)ncc1F (stereo not shown) [Compound 240, 4-{4-[6-chloro-7-fluoro-2-(5-fluoro-4-methylpyrimidin-2-yl)-2,3,4,9-tetrahydro-1H-pyrido[3,4-b]indol-1-yl]phenyl}butan-1-ol]
5 | 2.3 nM | Cc1cc(C(F)(F)F)nc(N2CCc3c([nH]c4cc(F)c(Cl)cc34)C2c2ccc(C#N)cc2)n1 (stereo not shown) [Compound 88, 4-{6-chloro-7-fluoro-2-[4-methyl-6-(trifluoromethyl)pyrimidin-2-yl]-2,3,4,9-tetrahydro-1H-pyrido[3,4-b]indol-1-yl}benzonitrile]
6 | 26.3 nM | Cc1nc(C)nc(N2CCc3c([nH]c4ccc(Cl)cc34)C2c2cnc(N3CCN(C)CC3)nc2)n1 (stereo not shown) [Compound 380, 6-chloro-2-(4,6-dimethyl-1,3,5-triazin-2-yl)-1-[2-(4-methylpiperazin-1-yl)pyrimidin-5-yl]-2,3,4,9-tetrahydro-1H-pyrido[3,4-b]indole]
7 | 8.8 nM | Fc1cccc(C2c3[nH]c4ccc(Cl)cc4c3CCN2c2nccc(C(F)(F)F)n2)c1 (stereo not shown) [Compound 371, 6-chloro-1-(3-fluorophenyl)-2-[4-(trifluoromethyl)pyrimidin-2-yl]-2,3,4,9-tetrahydro-1H-pyrido[3,4-b]indole]
8 | 5.2 nM | Cc1nc(C)nc(N2CCc3c([nH]c4ccc(Cl)cc34)C2c2ccc(Cl)cc2F)n1 (stereo not shown) [Compound 468, 6-chloro-1-(4-chloro-2-fluorophenyl)-2-(4,6-dimethyl-1,3,5-triazin-2-yl)-2,3,4,9-tetrahydro-1H-pyrido[3,4-b]indole]
9 | 8.1 nM | Cc1cc(C#N)nc(N2CCc3c([nH]c4ccc(Cl)c(F)c34)C2c2ccc(F)cc2)n1 (stereo not shown) [Compound 111, 2-[6-chloro-5-fluoro-1-(4-fluorophenyl)-1,3,4,9-tetrahydro-2H-pyrido[3,4-b]indol-2-yl]-6-methylpyrimidine-4-carbonitrile]
10 | 0.7 nM | OCCNc1ncc([C@H]2c3[nH]c4ccc(Cl)cc4c3CCN2c2nc(C(F)(F)F)nc(C(F)(F)F)n2)cn1 [Compound 535, 2-[(5-{(1S)-2-[4,6-bis(trifluoromethyl)-1,3,5-triazin-2-yl]-6-chloro-2,3,4,9-tetrahydro-1H-pyrido[3,4-b]indol-1-yl}pyrimidin-2-yl)amino]ethan-1-ol]
11 | 3.5 nM | Oc1cc(Cl)ccc1C1c2[nH]c3ccc(Cl)cc3c2CCN1c1nccc(C(F)(F)F)n1 (stereo not shown) [Compound 222, 5-chloro-2-{6-chloro-2-[4-(trifluoromethyl)pyrimidin-2-yl]-2,3,4,9-tetrahydro-1H-pyrido[3,4-b]indol-1-yl}phenol]
12 | 4.4 nM | Cc1ccc([C@H]2c3[nH]c4ccc(Cl)cc4c3CCN2c2nc(C)c(F)c(C)n2)cc1 [Compound 395, (1S)-6-chloro-2-(5-fluoro-4,6-dimethylpyrimidin-2-yl)-1-(4-methylphenyl)-2,3,4,9-tetrahydro-1H-pyrido[3,4-b]indole]
13 | 32.3 nM | CN(C)c1ccc(C2c3[nH]c4cc(F)c(Cl)cc4c3CCN2c2ncc(F)cn2)cn1 (stereo not shown) [Compound 34, 5-[6-chloro-7-fluoro-2-(5-fluoropyrimidin-2-yl)-2,3,4,9-tetrahydro-1H-pyrido[3,4-b]indol-1-yl]-N,N-dimethylpyridin-2-amine]
14 | 1.7 nM | Cc1nc(N2CCc3c([nH]c4ccc(Cl)cc34)[C@@H]2c2cnc(N3CCOCC3)nc2)nc(C#N)c1F [Compound 421, 2-{(1S)-6-chloro-1-[2-(morpholin-4-yl)pyrimidin-5-yl]-1,3,4,9-tetrahydro-2H-pyrido[3,4-b]indol-2-yl}-5-fluoro-6-methylpyrimidine-4-carbonitrile]
15 | 23.3 nM | Cc1nc(N2CCc3c([nH]c4cc(F)c(Cl)cc34)C2c2ccc(F)cc2)ncc1F (stereo not shown) [Compound 105, 6-chloro-7-fluoro-2-(5-fluoro-4-methylpyrimidin-2-yl)-1-(4-fluorophenyl)-2,3,4,9-tetrahydro-1H-pyrido[3,4-b]indole]
16 | 9.3 nM | Fc1ccc(C2c3[nH]c4ccc(Cl)c(F)c4c3CCN2c2nccc(C(F)(F)F)n2)cc1 (stereo not shown) [Compound 60, 6-chloro-5-fluoro-1-(4-fluorophenyl)-2-[4-(trifluoromethyl)pyrimidin-2-yl]-2,3,4,9-tetrahydro-1H-pyrido[3,4-b]indole]
17 | 7.6 nM | Cc1cc(C)nc(N2CCc3c([nH]c4cc(F)c(Cl)cc34)C2c2cccc(F)c2F)n1 (stereo not shown) [Compound 129, 6-chloro-1-(2,3-difluorophenyl)-2-(4,6-dimethylpyrimidin-2-yl)-7-fluoro-2,3,4,9-tetrahydro-1H-pyrido[3,4-b]indole]
18 | 30.4 nM | COC(=O)c1ccnc(N2CCc3c([nH]c4ccc(Cl)c(F)c34)C2c2ccc(C#N)cc2)n1 (stereo not shown) [Compound 104, methyl 2-[6-chloro-1-(4-cyanophenyl)-5-fluoro-1,3,4,9-tetrahydro-2H-pyrido[3,4-b]indol-2-yl]pyrimidine-4-carboxylate]
19 | 65.6 nM | Cc1ccc(C2c3[nH]c4ccc(F)c(F)c4c3CCN2c2ncc(Cl)cn2)cc1 (stereo not shown) [Compound 84, 2-(5-chloropyrimidin-2-yl)-5,6-difluoro-1-(4-methylphenyl)-2,3,4,9-tetrahydro-1H-pyrido[3,4-b]indole]
20 | 3.8 nM | Fc1c(Cl)ccc2[nH]c3c(c12)CCN(c1nccc(C(F)(F)F)n1)C3c1cnc(-n2ccnc2)nc1 (stereo not shown) [Compound 193, 6-chloro-5-fluoro-1-[2-(1H-imidazol-1-yl)pyrimidin-5-yl]-2-[4-(trifluoromethyl)pyrimidin-2-yl]-2,3,4,9-tetrahydro-1H-pyrido[3,4-b]indole]
21 | 1 nM | Cc1cc(C)nc(N2CCc3c([nH]c4ccc(Cl)cc34)C2c2ccc(C)c(F)c2F)n1 (stereo not shown) [Compound 342, 6-chloro-1-(2,3-difluoro-4-methylphenyl)-2-(4,6-dimethylpyrimidin-2-yl)-2,3,4,9-tetrahydro-1H-pyrido[3,4-b]indole]
22 | 0.6 nM | Cc1cc(O)c2[nH]c3c(c2c1)CCN(c1nccc(C(F)(F)F)n1)C3c1ccc(C)c(F)c1F (stereo not shown) [Compound 276, 1-(2,3-difluoro-4-methylphenyl)-6-methyl-2-[4-(trifluoromethyl)pyrimidin-2-yl]-2,3,4,9-tetrahydro-1H-pyrido[3,4-b]indol-8-ol]
23 | 29.7 nM | O=[N+]([O-])c1c(Cl)ccc2[nH]c3c(c12)CCN(c1nccc(C(F)(F)F)n1)C3c1cnc(N2CCOCC2)nc1 (stereo not shown) [Compound 326, 6-chloro-1-[2-(morpholin-4-yl)pyrimidin-5-yl]-5-nitro-2-[4-(trifluoromethyl)pyrimidin-2-yl]-2,3,4,9-tetrahydro-1H-pyrido[3,4-b]indole]
24 | 3.8 nM | Cc1nc(N2CCc3c([nH]c4cc(F)c(Cl)cc34)C2c2cccc(F)c2F)nc(C)c1F (stereo not shown) [Compound 112, 6-chloro-1-(2,3-difluorophenyl)-7-fluoro-2-(5-fluoro-4,6-dimethylpyrimidin-2-yl)-2,3,4,9-tetrahydro-1H-pyrido[3,4-b]indole]
25 | 2.7 nM | Fc1cc(Cl)ccc1C1c2[nH]c3ccc(Cl)cc3c2CCN1c1nccc(C(F)(F)F)n1 (stereo not shown) [Compound 267, 6-chloro-1-(4-chloro-2-fluorophenyl)-2-[4-(trifluoromethyl)pyrimidin-2-yl]-2,3,4,9-tetrahydro-1H-pyrido[3,4-b]indole]
26 | 7.4 nM | Fc1cc2[nH]c3c(c2cc1Cl)CCN(c1nccc(Cl)n1)C3c1cccc(F)c1F (stereo not shown) [Compound 77, 6-chloro-2-(4-chloropyrimidin-2-yl)-1-(2,3-difluorophenyl)-7-fluoro-2,3,4,9-tetrahydro-1H-pyrido[3,4-b]indole]
27 | 8.1 nM | CN1CCN(c2ncc([C@H]3c4[nH]c5ccc(Cl)cc5c4CCN3c3nc(N4CCOCC4)nc(C(F)(F)F)n3)cn2)CC1 [Compound 509, (1S)-6-chloro-1-[2-(4-methylpiperazin-1-yl)pyrimidin-5-yl]-2-[4-(morpholin-4-yl)-6-(trifluoromethyl)-1,3,5-triazin-2-yl]-2,3,4,9-tetrahydro-1H-pyrido[3,4-b]indole]

Row | Structure (SMILES) | IC50
28 | CNc1ncc(C2c3[nH]c4ccc(Cl)c(F)c4c3CCN2c2nccc(C(F)(F)F)n2)cn1 (stereo not shown) [Compound 199, 5-{6-chloro-5-fluoro-2-[4-(trifluoromethyl)pyrimidin-2-yl]-2,3,4,9-tetrahydro-1H-pyrido[3,4-b]indol-1-yl}-N-methylpyrimidin-2-amine] | 5.4 nM
